Where “and” joins values, the source holds several entries; their conditions need not be identical. Equal entries are not always repeated.
Columns and labels:
[1] = ordinary storage conditions; results in a malodorous smell; cited from earlier work
forearm skin = test: Skin thickness of treated forearm measured by micrometer calipers; format: in vivo, human; conditions: for increase in skin thickness: topically twice daily, treated forearm, no change in untreated forearm; for appearance of treated forearm: twice daily, untreated forearm still loose, thin and wrinkled
Method: In one of the studies related to skin changes associated with aging, skin thickness was measured by micrometer calipers as follows: The skin was grasped with a 2×6 cm metal hinge, the internal faces of the hinge were coated with emery cloth to prevent slippage, and manually squeezed to threshold subject discomfort. Combined thickness of two whole-skin layers including thickness of the two hinge leaves was measured with micrometer calipers. Thickness of the two hinge leaves was subtracted to determine the actual thickness of two whole-skin layers. Triplicate measurements on treated site were done and an average number was used for calculation of the skin thickness.

[2] = system: forearm skin (epidermis, papillary dermis); test: Biological effects of topically applied N-acetyl compound on skin: test chambers on forearm, punch biopsy, histochemical staining; format: in vivo, human; conditions: 2% solution in water/propylene glycol, occlusive test chambers renewed twice weekly, five weeks
Method: In order to determine biological effects of a topically applied N-acetyl compound of the instant invention, seven women and one person of ages ranging from 58 to 81 years participated in this study. Topical formulation for the study was N-acetyl-L-cysteine 2% in a solution prepared from water 80 ml and propylene glycol 20 ml. Test sites were 1 cm square sites on extensor surface of forearm, 5 cm from the antecubital crease, a grid pattern formed by Hayes Test Chambers on Hayes adhesive strips. Each test chamber, 1 cm square, contained a square piece of filter paper which was fully moistened with 0.033 ml test solution. Test chambers were impressed on the skin to leave outlines which were marked with Sanford Sharpie permanent marker. Sites were re-marked at each successive application of test solutions. Vehicle control sites were on the opposite forearm. Filter paper of each chamber was saturated with 0.033 ml solution and chambers were fixed in place with the Hayes adhesive tape that held the test and vehicle chambers. […] Punch biopsy specimens, 3 mm or 4 mm in diameter, were secured at the end of the study, and specimens were processed and analyzed. […] Epidermal thickness was measured with Micro Image Analysis System, and the mean thickness was expressed as area of epidermis/horizontal length. The thickness of papillary dermis (upper dermis) was also measured.

itch / pruritus = test: Topical application to itchy skin or scalp lesions of single subjects; format: in vivo, human; conditions: person
Method: A subject, having an itchy lesion of lichen simplex chronicus on their right lower leg topically applied the above cream to the lesion.
A typical composition suitable for topical use on hair, scalp, nail and skin comprising for example N-acetylamino acid may be formulated as follows. N-Acetyl-DL-proline 2 g was dissolved in 98 ml solution prepared from water 40 ml, ethanol 40 ml and propylene glycol 20 ml. The composition with pH 2.7 contained 2% N-acetyl-DL-proline. A subject, having itchy scalp topically applied the above composition to itchy area of scalp.
N-Acetyl-L-lysine 2 g was dissolved in a 98 ml solution prepared from water 40 ml, ethanol 40 ml and propylene glycol 20 ml. The composition with pH 6.5 contained 2% N-acetyl-L-lysine. A subject, having an oily and pruritic scalp topically applied the above composition to the affected area of the scalp, and the area was dried with warm air to remove excess solvents.
The subject topically applied N-acetyl-DL-proline 5% in oil-in-water cream to the itchy lesions.
A subject with chronic nummular eczema and pruritic dry skin topically applied N-acetyl-DL-proline 5% in solution to itchy skin areas of eczema and dry skin lesions.
A subject, having axillary itch due to use of a conventional antiperspirant topically applied N-acetyl-DL-proline 5% in solution to itchy underarm skin areas.
The subject topically applied N-acetyl-L-glutamine 5% in a solution prepared from water 4 parts, ethanol 4 parts and propylene glycol 2 parts by volume.
The subject topically applied N-acetyl-α-D-glucosamine 5% in a solution prepared from water 4 parts, ethanol 4 parts and propylene glycol 2 parts by volume.

[3] = system: xerosis and dry skin on lower legs; test: Topical treatment of xerosis and dry skin; format: in vivo, human; conditions: 5% cream, twice daily, one week, subject
From the text: A subject who had xerosis and dry skin on lower legs topically applied twice daily 5% N-acetyl-glucosamine cream for one week. After a few days of topical treatment, the skin became less rough and scaly, and felt smooth.

[4] = system: adolescent acne with multiple papules and pustules on face; test: Topical treatment of acne; format: in vivo, human; conditions: 5% solution, twice daily, after a few days, subject
From the text: A subject who had adolescent acne with multiple papules and pustules on their face applied topically twice daily 5% N-acetyl-glucosamine solution.

[5] = system: photodamaged / photoaged skin; conditions: cited from earlier work
[6] = 5% cream, three weeks, one subject per value
[7] = 2% solution (water/ethanol/propylene glycol), pH 2.7, itchy scalp
[8] = 5% in oil-in-water cream, chronic Grover's Disease
[9] = 5% in solution, axillary itch due to antiperspirant
[10] = 5% in solution, chronic nummular eczema and pruritic dry skin
[11] = 10% cream, three weeks, one subject per value
[12] = 10% cream, four weeks, one subject per value
[13] = 5% in solution, acute urticaria
[14] = 5% in solution of water 4, ethanol 4, propylene glycol 2 parts, chronic Grover's Disease
[15] = 0.1% cream, topical application for 8 to 12 months (Weiss et al., JAAD 1988)
[16] = 2% solution, pH 6.5, oily and pruritic scalp

## CC(=O)N[C@@H](CS)C(=O)O [N-acetyl-L-cysteine]
[1]
  stability on storage: degrade under ordinary storage conditions
Forearm skin; [6]
  increase in skin thickness: 14%
Forearm skin; 5% cream, three weeks
  appearance of treated forearm: more firm, smooth, plump and minimally wrinkled when lifted
[2]; 8 subjects aged 58 to 81, vehicle control on opposite forearm
  average increase in thickness of epidermis over the control: 96%
[2]; all test sites
  increase in production of hyaluronic acid in papillary dermis over the control: 47-227%

## CC(=O)N1CCCC1C(=O)O (racemic) [N-acetyl-DL-proline]
Itch / pruritus; [7]
  scalp itch a few minutes after topical application: disappeared completely
  time scalp remained free of itch: 24 h
Itch / pruritus; [8]
  severe itch a few minutes after topical application: disappeared completely
  time lesions remained free of itch: 12 h
Itch / pruritus; [9]
  itch within a few minutes after topical application: disappeared completely
  time skin remained free of itch: five
Itch / pruritus; [10]
  itch a few minutes after topical application: disappeared completely
  time lesions remained free of itch: 48 h

## CC(=O)NC(Cc1c[nH]c2ccccc12)C(=O)O (racemic) [N-acetyl-DL-tryptophan]
Forearm skin; 10% cream, five weeks, one subject
  increase in skin thickness: 12%
Forearm skin; [11]
  increase in skin thickness: 11% and 21%
Forearm skin; 10% cream, five weeks
  appearance of treated forearm: more firm, smooth, plump and minimally wrinkled when lifted
Forearm skin; 10% cream, three weeks
  appearance of treated forearm: more firm, smooth, plump and minimally wrinkled when lifted

## CC(=O)N[C@@H](CCCNC(=N)N)C(=O)O [N-acetyl-L-arginine]
Forearm skin; [12]
  increase in skin thickness: 32% and 22%
Forearm skin; 10% cream, four weeks
  appearance of treated forearm: more firm, smooth, plump and minimally wrinkled when lifted

## CC(=O)NC1CCSC1=O (racemic) [N-acetyl-DL-homocysteine thiolactone]
Forearm skin; [6]
  increase in skin thickness: 89% and 21%
Forearm skin; 5% cream, three weeks
  appearance of treated forearm: more firm, smooth, plump and minimally wrinkled when lifted

## CC(=O)N[C@H]1C(O)O[C@H](CO)[C@H](O)[C@@H]1O (stereo partly drawn) [N-acetyl-D-galactosamine]
Itch / pruritus; [13]
  effect on urticarial lesions: concomitant disappearance of urticarial lesions
  severe itch a few minutes after topical application: disappeared completely
  time skin remained free of itch: 24 h

## CCOC(=O)[C@H](Cc1ccc(O)cc1)NC(C)=O [N-acetyl-L-tyrosine ethyl ester]
Forearm skin; [12]
  increase in skin thickness: 11% and 34%
Forearm skin; 10% cream, four weeks
  appearance of treated forearm: more firm, smooth, plump and minimally wrinkled when lifted

## CC(=O)N[C@@H]1[C@@H](O)[C@H](O)[C@@H](CO)O[C@@H]1O [N-acetyl-glucosamine, N-Acetyl-α-D-glucosamine]
[3]
  effect on xerosis and dry skin: returned to normal-looking skin
Forearm skin; [11]
  increase in skin thickness: 37%
Forearm skin; 10% cream, three weeks
  appearance of treated forearm: more firm, smooth, plump and minimally wrinkled when lifted
Itch / pruritus; [14]
  severe itch a few minutes after topical application: disappeared completely
  time lesions remained free of itch: 24 h
[4]
  effect on acne lesions: most lesions became less inflamed and gradually eradicated

## CC1=C(/C=C/C(C)=C/C=C/C(C)=C/C(=O)O)C(C)(C)CCC1 [tretinoin]
[5]; 0.05% in a cream, daily topical application (Kligman et al. 1986)
  effect on photodamaged skin: improve photodamaged skin
[5]; [15]
  effect on aging skin: improve clinical signs of aging skin
  side effects: burning sensation in the eyes and mild skin irritations
[5]; 0.1%, daily topical application, 16 weeks (Weiss et al., JAMA 1988)
  patients encountering dermatitis (side-effect): 92%
[5]; 0.1%, daily topical application, 16 weeks, compared to vehicle alone (Weiss et al., JAMA 1988)
  effect on photoaged skin: improve photoaged skin

## CC(=O)N[C@@H](CCCCN)C(=O)O [N-acetyl-L-lysine]
Itch / pruritus; [16]
  scalp itch a few minutes after topical application: disappeared completely
  time scalp remained free of itch: 12 h

## COC(=O)[C@H](CS)NC(C)=O [N-acetyl-L-cysteine methyl ester]
Forearm skin; [6]
  increase in skin thickness: 13% and 87%
Forearm skin; 5% cream, three weeks
  appearance of treated forearm: more firm, smooth, plump and minimally wrinkled when lifted
Forearm skin; [11]
  increase in skin thickness: 26%
Forearm skin; 10% cream, three weeks
  appearance of treated forearm: more firm, smooth, plump and minimally wrinkled when lifted

## CC(=O)N[C@@H](CCC(N)=O)C(=O)O [N-acetyl-L-glutamine]
Itch / pruritus; [14]
  severe itch a few minutes after topical application: disappeared completely
  time lesions remained free of itch: 24 h

— patent USRE44017E1, “N-acetyl aldosamines, N-acetylamino acids and related N-acetyl compounds and their topical use” (priority 1999, dated 2013)
